# In the oligonucleotide strings, read from the 5' end, every base follows the letter of its sugar. An asterisk marks phosphorothioate; unmarked linkages are phosphodiester. Other units and linkages are bracketed, terminal groups are in braces. A string of capitals states the bases alone. e = 2'-O-(2-methoxyethyl) (MOE); [5mC] = 5-methylcytosine; d = 2'-deoxy (DNA)
# Tested on: T47D cells
# Assay: Cell cycle assay in T47D cells
# Assay type: cell-based, human
# Details: 150 nM, 48 hours, relative to untreated control
substance,measurement,value
328403 (antisense eA*eG*eG*e[5mC]*e[5mC]*dT*dA*dT*dT*d[5mC]*d[5mC]*dT*dG*dT*dA*eG*e[5mC]*eA*eA*eA) [compound 328403],% cells in cell cycle phase G1,104%
same,% cells in cell cycle phase G2/M,89%
same,% cells in cell cycle phase S,112%
same,% cells in cell cycle phase aneuploid,175%
same,% cells in cell cycle phase subG1,49%

# — patent US8178506B2, “Oligomeric compounds and compositions for use in modulation of small non-coding RNAs” (Regulus Therapeutics Inc., priority 2003, dated 2012)
